Marks after values point to notes of the source that are not given here.
How the values were obtained:
[1] = tested on: Solid Tumors; assay: Clinical study of orally administered pazopanib in patients with solid tumors (clinical response); assay type: in vivo; parameters: key to Response: SD stable disease;; MR mixed response;; PR partial remission
Method: (§1) Sixty-three patients (pts) with cancer were treated with pazopanib three times a week, once (qd) or twice (bid) daily in a dose escalation scheme. The amount and frequency of administration of pazopanib to a representative number of those pts is summarized below in Table 1. Pts were evaluated monthly and treated until disease progression or intolerable side effects. Clinical response was determined every 8 wks. Safety and pharmacodynamics were separately assessed.
(§2) Preliminary representative patient data are shown below in Table 2.

[2] = Peak plasma concentration of pazopanib in the clinical study; assay type: in vivo; details: oral dosing, regardless of tumor type
Method: as §1, §2

[3] = patient with Adeno lung, 200-800 mg qd, oral
[4] = patient with Chondrosarcoma, 400-800 mg qd, oral
[5] = patient with Chondrosarcoma, 2000-800 mg qd, oral
[6] = patient with GIST, 600-800 mg qd, oral
[7] = patient with Hurthle Cell tumor, 50-800 mg qd, oral
[8] = patient with Leiomyosarcoma, 50-800 mg qd, oral
[9] = patient with Melanoma, 50-400 mg qd, oral
[10] = patient with Neuroendocrine tumor, 300 mg bid, oral
[11] = patient with Rectal carcinoid, 800 mg qd, oral
[12] = patient with Renal cell carcinoma, 800 mg qd, oral, patient withdrawn from study
[13] = patient with Renal cell carcinoma, 2000 mg qd, oral
[14] = patient with Renal cell carcinoma, 1400-800 mg qd, oral

Cc1ccc(Nc2nccc(N(C)c3ccc4c(C)n(C)nc4c3)n2)cc1S(N)(=O)=O [pazopanib, 5-({4-[(2,3-dimethyl-2H-indazol-6-yl)(methyl)amino]pyrimidin-2-yl}amino)-2-methylbenzenesulfonamide]
Duration on pazopanib (weeks) [1, 3]: 55 weeks
Response [1, 3]: SD
Duration on pazopanib (weeks) [1, 4]: 31 weeks
Response [1, 4]: SD
Duration on pazopanib (weeks) [1, 5]: 90+ weeks
Response [1, 5]: SD (MR)
Duration on pazopanib (weeks) [1, 6]: 60 weeks
Response [1, 6]: SD
Duration on pazopanib (weeks) [1, 7]: 101 weeks
Response [1, 7]: SD (MR)
Duration on pazopanib (weeks) [1, 8]: 34 weeks
Response [1, 8]: SD
Duration on pazopanib (weeks) [1, 9]: 36 weeks
Response [1, 9]: SD
Duration on pazopanib (weeks) [1, 10]: 50+ weeks
Response [1, 10]: MR
Duration on pazopanib (weeks) ([1]; patient with Neuroendocrine tumor, 1000 mg qd, oral): 38 weeks
Response ([1]; patient with Neuroendocrine tumor, 1000 mg qd, oral, preliminary data not yet confirmed): PR^#
Duration on pazopanib (weeks) [1, 11]: 40+ weeks
Response [1, 11]: SD
Response ([1]; patient with Renal cell carcinoma, 300 mg bid, oral (40+ weeks patient)): MR
Response ([1]; patient with Renal cell carcinoma, 300 mg bid, oral (52+ weeks patient)): PR
Duration on pazopanib (weeks) ([1]; patient with Renal cell carcinoma, 300 mg bid, oral, response MR): 40+ weeks
Duration on pazopanib (weeks) ([1]; patient with Renal cell carcinoma, 300 mg bid, oral, response PR): 52+ weeks
Response ([1]; patient with Renal cell carcinoma, 800 mg qd, oral (12+ weeks patient)): SD
Duration on pazopanib (weeks) [1, 12]: 19 weeks
Response [1, 12]: SD (MR)*
Duration on pazopanib (weeks) ([1]; patient with Renal cell carcinoma, 800 mg qd, oral, response SD): 12+ weeks
Duration on pazopanib (weeks) [1, 13]: 24 weeks
Response [1, 13]: SD (MR)
Duration on pazopanib (weeks) [1, 14]: 40 weeks
Response [1, 14]: SD (MR)
peak plasma concentrations of pazopanib in patients that demonstrated a clinical benefit [2]: ≥ 40 µM
